This test addresses T1, Human mineralocorticoid receptor (HMR) (Homo sapiens, UniProt P08235).
T1 construct: made in house; host or cells: SF9 insect cells (baculovirus), lysate supernatant
T1 sequence (P08235 1-984): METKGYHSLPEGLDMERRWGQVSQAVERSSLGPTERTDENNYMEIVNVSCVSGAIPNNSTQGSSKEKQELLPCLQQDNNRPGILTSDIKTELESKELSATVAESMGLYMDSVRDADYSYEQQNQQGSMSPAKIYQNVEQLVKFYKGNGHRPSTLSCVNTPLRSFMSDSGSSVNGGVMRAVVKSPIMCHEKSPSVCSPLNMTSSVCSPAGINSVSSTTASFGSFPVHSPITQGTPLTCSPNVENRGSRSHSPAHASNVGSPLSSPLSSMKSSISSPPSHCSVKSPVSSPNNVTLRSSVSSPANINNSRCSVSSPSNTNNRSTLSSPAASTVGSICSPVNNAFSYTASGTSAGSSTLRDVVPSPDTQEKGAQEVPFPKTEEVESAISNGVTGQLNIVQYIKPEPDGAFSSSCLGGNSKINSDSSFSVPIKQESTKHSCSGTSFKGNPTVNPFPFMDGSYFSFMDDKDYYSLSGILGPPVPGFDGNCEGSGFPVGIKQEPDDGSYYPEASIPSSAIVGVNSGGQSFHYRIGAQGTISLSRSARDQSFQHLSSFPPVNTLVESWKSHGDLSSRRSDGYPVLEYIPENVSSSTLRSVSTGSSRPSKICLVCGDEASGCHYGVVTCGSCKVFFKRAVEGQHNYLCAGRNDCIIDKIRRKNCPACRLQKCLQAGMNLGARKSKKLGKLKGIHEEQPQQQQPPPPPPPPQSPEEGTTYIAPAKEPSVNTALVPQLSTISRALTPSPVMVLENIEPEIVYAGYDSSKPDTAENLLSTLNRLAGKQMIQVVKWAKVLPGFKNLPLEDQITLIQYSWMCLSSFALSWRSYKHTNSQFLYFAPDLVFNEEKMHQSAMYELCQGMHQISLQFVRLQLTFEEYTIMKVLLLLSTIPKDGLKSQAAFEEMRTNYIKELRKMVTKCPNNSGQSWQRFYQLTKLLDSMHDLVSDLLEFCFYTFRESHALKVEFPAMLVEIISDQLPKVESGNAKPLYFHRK
The experiment in a line: Relative bond affinity (RBA), recombinant human mineralocorticoid receptor, charcoal dextran technique. Format: binding. To be noted: 24 h at 0° C.; Aldosterone = 100. An excerpt:
The human recombinant receptor (HGR, HPR, HAR, HMR, HER) was used.
Human mineralocorticoid receptor (HMR):
A supernatant of SF9 cells containing the recombinant human mineralocorticoid receptor was obtained according to the process described above for the progestogen receptor using the cDNA fragment described by Baulieu et al (Proc. Natl. Acad. Sci., (1991), Vol. 88, p. 10681-10685) containing the region coding for the human mineralocorticoid receptor. The cells obtained were lysed in the lysis buffer (4). The supernatant was incubated at 0° C. for 24 hours with a constant concentration (T) of tritiated aldosterone in the presence of increasing concentrations of either unlabelled aldosterone (0 to 1000×10^-9 M), or the unlabelled product to be tested (1 to 25000×10^-9 M). The concentration of bound tritiated aldosterone (B) was then measured in each incubate using the charcoal dextran adsorption technique.
Calculation of the relative bond affinity (RBA).
The following two curves were drawn: the percentage of bound tritiated hormone B/BO as a function of the logarithm of the concentration of unlabelled reference hormone or as a function of the logarithm of the concentration of unlabelled test product. The straight line of the following equation was determined: […]
The relative bond affinity (RBA) of the test product was determined by the equation: […]

Data on one compound can be found in US5834452A, “1- or 6-hydroxylated steroids” (Roussel Uclaf, priority 1996, dated 1998).

`C[C@H](O)C(=O)[C@@]1(C)CC[C@H]2[C@@H]3C[C@@H](O)C4=CC(=O)CCC4=C3CC[C@@]21C` [Product B, [6β, 17β-(S)]-6-hydroxy-17-(2-hydroxy-1-oxopropyl)-17-methyl-Δ^4,9-estradiene-3-one]: the “RBA, Human mineralocorticoid receptor” value is reported as “no or negligible RBA's”.
